Earlier results as cited in patent publication US9512158B2, “Enhanced immunogenicity of tumor associated antigens by addition of alphagal epitopes” (NewLink Genetics Corp., priority 2006, dated 2016).

How the values were obtained:
αGT knockout mice = conditions: cited from earlier work
MHC-I H2-K^b = target: T1, MHC-I H2-K^b (Mus musculus, UniProt P01901); conditions: compared with peptide #1 TWHRYHLL; cited from earlier work
T1 sequence (P01901 22-369): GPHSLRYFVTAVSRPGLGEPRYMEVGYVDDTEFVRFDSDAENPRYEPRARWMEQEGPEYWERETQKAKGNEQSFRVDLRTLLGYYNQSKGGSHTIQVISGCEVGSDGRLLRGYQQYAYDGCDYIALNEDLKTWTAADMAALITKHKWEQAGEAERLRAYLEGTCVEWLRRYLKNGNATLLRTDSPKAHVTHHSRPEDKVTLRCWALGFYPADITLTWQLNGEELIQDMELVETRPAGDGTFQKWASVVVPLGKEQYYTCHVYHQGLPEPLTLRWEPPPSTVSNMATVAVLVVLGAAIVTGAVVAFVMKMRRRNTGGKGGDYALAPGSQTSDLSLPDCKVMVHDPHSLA
T1 sequence (P01887 21-119 partner): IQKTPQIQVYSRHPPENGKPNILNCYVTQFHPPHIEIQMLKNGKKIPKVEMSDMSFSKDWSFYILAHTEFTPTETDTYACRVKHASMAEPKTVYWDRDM

B16 melanoma = conditions: cited from earlier work

BSA conjugated with αGal: BSA conjugated with αGal
T cell response to BSA (αGT knockout mice; mouse, in vivo): increase
production of anti-BSA IgG antibodies (αGT knockout mice; without adjuvant): significant production

TAYRYHLL
binding affinity to MHC-I H2-K^b (MHC-I H2-K^b): better binding affinity
protective immunity against B16 melanoma (B16 melanoma; C57Bl/6 mice (H-2K^b), in the presence of adjuvant): induces protective immunity
immunogenicity (B16 melanoma; in the absence of adjuvant): not immunogenic
